Laboratory results: the supplement of paper PMC10307832

Tests used:
Assay in all cases: relative viability (nuclei count vs DMSO), 5 days (fraction); higher = more cells survive
BEN = tested on: BEN
Procedure, shortened: (§1)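 Lung cancer cell lines, seeded in 1536-well plates, were treated the following day by pin tool with a single drug or with five library-drug doses (not always all listed) in √10 steps on top of a fixed anchor-drug dose. Cells were fixed and nuclei stained in one step after 5 days, and nuclei were counted. Relative viability is the nuclei count for treated wells divided by that for vehicle wells, reported as medians of duplicate plates.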

ChaGo-K-1 = tested on: ChaGo-K-1
Procedure, shortened: as §1

LC-2-ad = tested on: LC-2-ad
Procedure, shortened: as §1

LCLC-97TM1 = tested on: LCLC-97TM1
Procedure, shortened: as §1

LK-2 = tested on: LK-2
Procedure, shortened: as §1

LU99A = tested on: LU99A
Procedure, shortened: as §1

LXF-289 = tested on: LXF-289
Procedure, shortened: as §1

NCI-H1355 = tested on: NCI-H1355
Procedure, shortened: as §1

NCI-H1651 = tested on: NCI-H1651
Procedure, shortened: as §1

NCI-H1666 = tested on: NCI-H1666
Procedure, shortened: as §1

NCI-H1944 = tested on: NCI-H1944
Procedure, shortened: as §1

NCI-H1975 = tested on: NCI-H1975
Procedure, shortened: as §1

NCI-H2087 = tested on: NCI-H2087
Procedure, shortened: as §1

NCI-H2342 = tested on: NCI-H2342
Procedure, shortened: as §1

NCI-H358 = tested on: NCI-H358
Procedure, shortened: as §1

NCI-H596 = tested on: NCI-H596
Procedure, shortened: as §1

NCI-H650 = tested on: NCI-H650
Procedure, shortened: as §1

NCI-H661 = tested on: NCI-H661
Procedure, shortened: as §1

NCI-H838 = tested on: NCI-H838
Procedure, shortened: as §1

PC-3 [JPC-3] = tested on: PC-3 [JPC-3]
Procedure, shortened: as §1

SK-MES-1 = tested on: SK-MES-1
Procedure, shortened: as §1

SMILES: COc1nc(C)cnc1NS(=O)(=O)c1cccnc1-c1ccc(-c2nnco2)cc1 [Zibotentan] + CCNC(=O)c1noc(-c2cc(C(C)C)c(O)cc2O)c1-c1ccc(CN2CCOCC2)cc1 [Luminespib] (partner 0.01 µM)
- relative viability (BEN; first compound 0.08 µM): 0.401
- relative viability (BEN; first compound 0.253 µM): 0.356
- relative viability (BEN; first compound 0.8 µM): 0.395
- relative viability (BEN; first compound 2.53 µM): 0.537
- relative viability (ChaGo-K-1; first compound 0.08 µM): 0.568
- relative viability (ChaGo-K-1; first compound 0.253 µM): 0.683
- relative viability (ChaGo-K-1; first compound 0.8 µM): 0.588
- relative viability (ChaGo-K-1; first compound 2.53 µM): 0.503
- relative viability (LC-2-ad; first compound 0.08 µM): 1.25
- relative viability (LC-2-ad; first compound 0.8 µM): 1.32
- relative viability (LC-2-ad; first compound 2.53 µM): 1.06
- relative viability (LCLC-97TM1; first compound 0.08 µM): 0.948
- relative viability (LCLC-97TM1; first compound 0.253 µM): 0.759
- relative viability (LCLC-97TM1; first compound 0.8 µM): 0.927
- relative viability (LCLC-97TM1; first compound 2.53 µM): 0.692
- relative viability (LK-2; first compound 0.08 µM): 0.216
- relative viability (LK-2; first compound 0.253 µM): 0.208
- relative viability (LK-2; first compound 0.8 µM): 0.168
- relative viability (LK-2; first compound 2.53 µM): 0.154
- relative viability (LU99A; first compound 0.08 µM): 0.275
- relative viability (LU99A; first compound 0.253 µM): 0.242
- relative viability (LU99A; first compound 0.8 µM): 0.245
- relative viability (LU99A; first compound 2.53 µM): 0.243
- relative viability (LXF-289; first compound 0.08 µM): 0.657
- relative viability (LXF-289; first compound 0.253 µM): 0.683
- relative viability (LXF-289; first compound 0.8 µM): 0.627
- relative viability (LXF-289; first compound 2.53 µM): 0.756
- relative viability (NCI-H1355; first compound 0.08 µM): 0.738
- relative viability (NCI-H1355; first compound 0.253 µM): 0.719
- relative viability (NCI-H1355; first compound 0.8 µM): 0.773
- relative viability (NCI-H1355; first compound 2.53 µM): 0.75
- relative viability (NCI-H1651; first compound 0.08 µM): 0.802
- relative viability (NCI-H1651; first compound 0.253 µM): 0.484
- relative viability (NCI-H1651; first compound 0.8 µM): 0.958
- relative viability (NCI-H1651; first compound 2.53 µM): 0.796
- relative viability (NCI-H1666; first compound 0.08 µM): 0.96
- relative viability (NCI-H1666; first compound 0.253 µM): 0.905
- relative viability (NCI-H1666; first compound 0.8 µM): 1.02
- relative viability (NCI-H1666; first compound 2.53 µM): 1.05
- relative viability (NCI-H1944; first compound 0.08 µM): 0.732
- relative viability (NCI-H1944; first compound 0.253 µM): 0.694
- relative viability (NCI-H1944; first compound 0.8 µM): 0.75
- relative viability (NCI-H1944; first compound 2.53 µM): 0.742
- relative viability (NCI-H1975; first compound 0.08 µM): 0.305
- relative viability (NCI-H1975; first compound 0.253 µM): 0.0756
- relative viability (NCI-H1975; first compound 0.8 µM): 0.198
- relative viability (NCI-H1975; first compound 2.53 µM): 0.218
- relative viability (NCI-H2087; first compound 0.08 µM): 0.168
- relative viability (NCI-H2087; first compound 0.253 µM): 0.171
- relative viability (NCI-H2087; first compound 0.8 µM): 0.169
- relative viability (NCI-H2087; first compound 2.53 µM): 0.124
- relative viability (NCI-H2342; first compound 0.08 µM): 0.702
- relative viability (NCI-H2342; first compound 0.253 µM): 0.617
- relative viability (NCI-H2342; first compound 0.8 µM): 0.652
- relative viability (NCI-H2342; first compound 2.53 µM): 0.738
- relative viability (NCI-H358; first compound 0.08 µM): 0.302
- relative viability (NCI-H358; first compound 0.8 µM): 0.435
- relative viability (NCI-H358; first compound 2.53 µM): 0.555
- relative viability (NCI-H596; first compound 0.08 µM): 1.02
- relative viability (NCI-H596; first compound 0.253 µM): 0.939
- relative viability (NCI-H596; first compound 0.8 µM): 1.16
- relative viability (NCI-H596; first compound 2.53 µM): 1.03
- relative viability (NCI-H650; first compound 0.08 µM): 0.869
- relative viability (NCI-H650; first compound 0.253 µM): 0.667
- relative viability (NCI-H650; first compound 0.8 µM): 0.865
- relative viability (NCI-H650; first compound 2.53 µM): 0.856
- relative viability (NCI-H661; first compound 0.08 µM): 0.953
- relative viability (NCI-H661; first compound 0.253 µM): 0.836
- relative viability (NCI-H661; first compound 0.8 µM): 0.922
- relative viability (NCI-H661; first compound 2.53 µM): 0.922
- relative viability (NCI-H838; first compound 0.08 µM): 0.21
- relative viability (NCI-H838; first compound 0.253 µM): 0.212
- relative viability (NCI-H838; first compound 0.8 µM): 0.314
- relative viability (NCI-H838; first compound 2.53 µM): 0.313
- relative viability (PC-3 [JPC-3]; first compound 0.08 µM): 0.692
- relative viability (PC-3 [JPC-3]; first compound 0.253 µM): 0.738
- relative viability (PC-3 [JPC-3]; first compound 0.8 µM): 0.774
- relative viability (PC-3 [JPC-3]; first compound 2.53 µM): 0.718
- relative viability (SK-MES-1; first compound 0.08 µM): 1.05
- relative viability (SK-MES-1; first compound 0.253 µM): 0.788
- relative viability (SK-MES-1; first compound 0.8 µM): 0.818
- relative viability (SK-MES-1; first compound 2.53 µM): 0.83
